Measurements: patent US20230172930A1, “USE OF COMPLEMENT FACTOR D INHIBITORS ALONE OR IN COMBINATION WITH ANTI-C5 ANTIBODIES FOR TREATMENT OF PAROXYSMAL NOCTURNAL HEMOGLOBINURIA” (Alexion Pharmaceuticals, Inc., priority 2020, published 2023)
Where “and” joins values, the source holds several entries; their conditions need not be identical. Equal values may be shown once.

Key:
[1] = tested on: PNH patients with an inadequate response to eculizumab; assay: Phase 2 study: safety and tolerability (TEAEs)
Source text: After completing 24 weeks of treatment, patients entered a long-term extension.

[2] = tested on: PNH erythrocytes; assay: Phase 2 study: PNH clone size and C3 fragment deposition on erythrocytes by flow cytometry (anti-human C3d antibody); format: in vivo
Protocol: (§1) FIGS. 4A-4D are graphs depicting the effect on complement biomarkers and PNH clone size. […] Arithmetic mean and standard derivation (SD) were shown for all but the clone size of C3d^+ PNH erythrocytes where geometric mean was used, and the range was shown at each time point. NHS, normal human serum; BL, baseline; LLN, lower limit normal; ULN, upper limit normal.
(§2) Pharmacodynamics were determined by measuring serum AP activity with AP hemolysis assay. Serum CP activity, Plasma Bb concentration, serum FD, and C3 concentrations were also monitored. Complement tests were conducted by a central lab using commercial kits, with the exception of AP hemolysis assay which was conducted internally for exploratory purposes. At each AP hemolysis run, a single normal human serum sample was included in addition to the patient serum samples so hemolysis values of individual patient serum samples could be standardized to the hemolysis value of the normal human serum sample. Finally, PNH clone size and C3 fragment deposition on erythrocytes was measured using flow cytometry with FITC conjugated anti-human C3d antibody.

[3] = as above; format: in vivo
Protocol: as §1, §2

[4] = tested on: PNH patients with an inadequate response to eculizumab; assay: Phase 2 study: RBC transfusion needs (events, units, annualized rates); format: in vivo, human
Protocol: Transfusion frequency and amount were evaluated via annualized rates and units, respectively. The average intensive rate of transfusion frequency before treatment was calculated by summing the number of transfusion events in the 52 weeks prior to Screening plus days from Screening to Day 1 of dosing from 10 patients and dividing this sum by the patients' total exposure times. The average intensive rate in the 24 weeks post-treatment was calculated with the same method. The ratio of these two intensive rates (post vs. pre) was used to quantify the treatment effect. Standard statistical analysis for comparing the two intensity rates (post- vs pre-treatment) was conducted.

[5] = Phase 2 study: plasma danicopan pharmacokinetics (LC-MS/MS); format: in vivo, human
Source text: The mean (% CV) Ctrough value was 105 (57) ng/mL during these intensive sampling days. Sampling at through times over the rest of the study duration under less controlled conditions yielded a mean (% CV) Ctrough value of 150 (59) ng/mL.

[6] = N=11, Baseline, before danicopan, on eculizumab
[7] = Patient A, Baseline, before danicopan, on eculizumab 900 mg q14d
[8] = Patient B, Baseline, before danicopan, on eculizumab 1200 mg q14d
[9] = Patient C, Baseline, before danicopan, on eculizumab 900 mg q14d
[10] = Patient C, Week 12, danicopan 150 mg TID + eculizumab 900 mg q14d
[11] = Patient C, Week 24, danicopan 150 mg TID + eculizumab 900 mg q14d
[12] = Patient D, Baseline, before danicopan, on eculizumab 900 mg q14d
[13] = Patient D, Week 12, danicopan 150 mg TID + eculizumab 900 mg q14d
[14] = Patient D, Week 24, danicopan 150 mg TID + eculizumab 900 mg q14d
[15] = Patient E, Baseline, before danicopan, on eculizumab 1200 mg q14d
[16] = Patient E, Week 12, danicopan 150 mg TID + eculizumab 1200 mg q14d
[17] = Patient E, Week 24, danicopan 150 mg TID + eculizumab 1200 mg q14d
[18] = Patient F, Baseline, before danicopan, on eculizumab 900 mg q14d
[19] = Patient F, Week 12, danicopan 150 mg TID + eculizumab 900 mg q14d
[20] = Patient F, Week 24, danicopan 150 mg TID + eculizumab 900 mg q14d
[21] = Patient G, Baseline, before danicopan, on eculizumab 1500 mg q14d
[22] = Patient G, Week 12, danicopan 100 mg TID + eculizumab 1500 mg q14d
[23] = Patient G, Week 24, danicopan 100 mg TID + eculizumab 1500 mg q14d
[24] = Patient H, Baseline, before danicopan, on eculizumab 900 mg q14d
[25] = Patient H, Week 12, danicopan 200 mg TID + eculizumab 900 mg q14d
[26] = Patient I, Baseline, before danicopan, on eculizumab 900 mg q14d
[27] = Patient I, Week 12, danicopan 100 mg TID + eculizumab 900 mg q14d
[28] = Patient J, Baseline, before danicopan, on eculizumab 1200 mg q14d
[29] = Patient J, Week 12, danicopan 100 mg TID + eculizumab 1200 mg q14d
[30] = Patient J, Week 24, danicopan 200 mg TID + eculizumab 1200 mg q14d
[31] = Patient K, Baseline, before danicopan, on eculizumab 900 mg q14d
[32] = Patient K, Week 12, danicopan 100 mg TID + eculizumab 900 mg q14d
[33] = Patient K, Week 24, danicopan 150 mg TID + eculizumab 900 mg q14d
[34] = pre-danicopan: 52-week history plus screening to Day 1, ten patients on eculizumab

CC(=O)c1nn(CC(=O)N2C[C@H](F)C[C@H]2C(=O)Nc2cccc(Br)n2)c2ccc(-c3cnc(C)nc3)cc12 [Danicopan, danicopan]
discontinuations due to TEAEs ([1]; 11 patients completing treatment): no discontinuations due to TEAEs
Grade 3 direct bilirubin elevation with grade 1 ALT elevation ([1]; Day 70, resolved by Day 77, attributed to breakthrough hemolysis): One patient experienced a Grade 3 direct bilirubin elevation
severe adverse event of pneumonia requiring hospitalization ([1]; Day 145, recovered Day 152, relationship to study drug considered unlikely): The second patient experienced a severe adverse event of pneumonia
Number of Patients Reporting a TEAE, % ([1]; N=11): (100) %
Abdominal pain, % ([1]; TEAE, N=11): (18) %
Contusion, % ([1]; TEAE, N=11): (18) %
Cough, % ([1]; TEAE, N=11): (18) %
Fatigue, % ([1]; TEAE, N=11): (18) %
Headache, % ([1]; TEAE, N=11): (27) %
Nasopharyngitis, % ([1]; TEAE, N=11): (18) %
Nausea, % ([1]; TEAE, N=11): (18) %
Oropharyngeal, % ([1]; TEAE, N=11): (18) %
Pain in extremity, % ([1]; TEAE, N=11): (18) %
tolerability ([1]; danicopan 100-200 mg TID + eculizumab, 24 weeks): generally well tolerated
discontinuation due to serious adverse event (worsening pulmonary hypertension/edema) ([1]; of twelve enrolled, considered unlikely related to danicopan): One discontinued after 2 doses
TEAEs mild to moderate in severity ([1]; share of treatment TEAEs): 96%
PNH RBC clone size, mean ([2]; N=7, Week 24, danicopan 100-200 mg TID + eculizumab): 84±22.1% and 84%
C3d^+ PNHRBCs, geometric mean [2, 6]: 22% and 22.2%
PNH RBC clone size, mean [2, 6]: 54±24.9% and 54%
C3d^+ PNHRBCs, geometric mean ([2]; N=11, Week 24, danicopan 100-200 mg TID + eculizumab): 6.7% and 6.68%
C3d^+ PNHRBCs [2, 7]: 6.30%
PNH RBC clone size [2, 7]: 41%
PNH RBC clone size ([2]; Patient A, Week 12, danicopan 150 mg TID + eculizumab 900 mg q14d): 83%
C3d^+ PNHRBCs ([2]; Patient A, Week 24, danicopan 150 mg TID + eculizumab 900 mg q14d): 2.20%
C3d^+ PNHRBCs [2, 8]: 8.20%
PNH RBC clone size [2, 8]: 80%
PNH RBC clone size ([2]; Patient B, Week 12, danicopan 100 mg TID + eculizumab 900 mg q14d): 89%
C3d^+ PNHRBCs ([2]; Patient B, Week 24, danicopan 100 mg TID + eculizumab 900 mg q14d): 1.00%
C3d^+ PNHRBCs [2, 9]: 17.5%
PNH RBC clone size [2, 9]: 22%
C3d^+ PNHRBCs [2, 10]: 18.6%
PNH RBC clone size [2, 10]: 59%
C3d^+ PNHRBCs [2, 11]: 16.7%
PNH RBC clone size [2, 11]: 51%
C3d^+ PNHRBCs [2, 12]: 15.9%
PNH RBC clone size [2, 12]: 52%
C3d^+ PNHRBCs [2, 13]: 0.200%
PNH RBC clone size [2, 13]: 99%
C3d^+ PNHRBCs [2, 14]: 5.20%
PNH RBC clone size [2, 14]: 100%
C3d^+ PNHRBCs [2, 15]: 21.3%
PNH RBC clone size [2, 15]: 21%
C3d^+ PNHRBCs [2, 16]: 11.8%
PNH RBC clone size [2, 16]: 37%
C3d^+ PNHRBCs [2, 17]: 4.90%
PNH RBC clone size [2, 17]: 53%
C3d^+ PNHRBCs [2, 18]: 71.0%
PNH RBC clone size [2, 18]: 95%
C3d^+ PNHRBCs [2, 19]: 48.0%
PNH RBC clone size [2, 19]: 99%
C3d^+ PNHRBCs [2, 20]: 53.4%
PNH RBC clone size [2, 20]: 98%
C3d^+ PNHRBCs [2, 21]: 80.0%
PNH RBC clone size [2, 21]: 62.8%
C3d^+ PNHRBCs [2, 22]: 29.4%
PNH RBC clone size [2, 22]: 90.4%
C3d^+ PNHRBCs [2, 23]: 57.0%
PNH RBC clone size [2, 23]: 96.0%
C3d^+ PNHRBCs [2, 24]: 38.8%
PNH RBC clone size [2, 24]: 19%
C3d^+ PNHRBCs [2, 25]: 14.9%
PNH RBC clone size [2, 25]: 71%
C3d^+ PNHRBCs ([2]; Patient H, Week 24, danicopan 200 mg TID + eculizumab 900 mg q14d): 22.8%
C3d^+ PNHRBCs [2, 26]: 13.6%
PNH RBC clone size [2, 26]: 73%
C3d^+ PNHRBCs [2, 27]: 0.400%
PNH RBC clone size [2, 27]: 95%
C3d^+ PNHRBCs ([2]; Patient I, Week 24, danicopan 200 mg TID + eculizumab 900 mg q14d): 0.100%
C3d^+ PNHRBCs [2, 28]: 34.3%
PNH RBC clone size [2, 28]: 60%
C3d^+ PNHRBCs [2, 29]: 59.5%
PNH RBC clone size [2, 29]: 99%
C3d^+ PNHRBCs [2, 30]: 28.7%
PNH RBC clone size [2, 30]: 99%
C3d^+ PNHRBCs [2, 31]: 20.2%
PNH RBC clone size [2, 31]: 55%
C3d^+ PNHRBCs [2, 32]: 44.2%
PNH RBC clone size [2, 32]: 84%
C3d^+ PNHRBCs [2, 33]: 6.30%
PNH RBC clone size [2, 33]: 91%
clone size of PNH granulocytes, mean±SD ([3]; Week 24): 95±7.2%
clone size of PNH granulocytes, mean±SD ([3]; baseline): 92±9.2%
reduction in transfusion frequency ([4]; post- vs. pre-danicopan): 95.8%
average annualized rate of transfusion events ([4]; post-danicopan (24 weeks)): 0.217
average annualized transfusion units ([4]; post-danicopan (24 weeks)): 0.43
average annualized rate of transfusion events ([4]; pre-danicopan): 5.234
average annualized transfusion units ([4]; pre-danicopan): 9.27
transfusions administered [4, 34]: 57
units of packed red blood cells (PRBC) [4, 34]: 101 units
units transfused ([4]; since commencing danicopan through week 24, ten patients): 2 units
Ctrough, mean (% CV) ([5]; intensive sampling days, Week 7): 105 (57) ng/mL
Ctrough, mean (% CV) ([5]; trough sampling over the rest of the study, less controlled conditions): 150 (59) ng/mL
